Experiments:
[1] = Blood ICG concentration after high dose intravenous injection (calibration sequence); format: in vivo, New Zealand White rabbits; details: rabbit, 1 mg ICG intravenously, metabolized by the liver
From the text: A. A sample method and system for measuring cardiac output and blood volume. Experiments have been performed in New Zealand White rabbits (2.8-3.5 Kg) anesthetized with halothane and artificially ventilated with an oxygen-enriched gas mixture (Fio2˜0.4) to achieve a Sao2 above 99% and an end-tidal CO2 between 28 and 32 mm Hg (FIG. 4). The left femoral artery was cannulated for measurement of the arterial blood pressure throughout the procedure. A small catheter was positioned in the left brachial vein to inject the indicator, ICG. Body temperature was maintained with a heat lamp.
Calibration of the transcutaneous fluorescence intensity measured at the level of the animals' ear as a function of ICG concentration in blood was performed as follows. […]
As the liver metabolizes ICG, the blood ICG concentration decreases back to 0 in about 20 minutes. […] The fluorescence intensity of the blood in the cuvette was converted to a measurement of concentration using the known standard curve of fluorescence intensity versus ICG concentration established for the cuvette. ICG fluorescence was measured at the level of the ear at the exact time of the blood sample withdrawal. […]
For the range of concentrations used in these studies, ICG concentration and transcutaneous fluorescence were linearly related. […]

blood proteins = details: protein-bound ICG not cleared by dialysis; cited from earlier work
[2] = cited from earlier work

CC1(C)C(/C=C/C=C/C=C/C=C2\N(CCCCS(=O)(=O)O)c3ccc4ccccc4c3C2(C)C)=[N+](CCCCS(=O)(=O)[O-])c2ccc3ccccc3c21 [ICG, indocyanine green]
time for blood ICG concentration to decrease back to 0 [1]: about 20 minutes
fraction of ICG injected in the bloodstream that binds to blood proteins (blood proteins): more than 95%
stability in aqueous solution [2]: breaks down quickly

From patent US8337444B2, “Measurement of cardiac output and blood volume by non-invasive detection of indicator dilution for hemodialysis” (Alfred E. Mann Institute for Biomedical Engineering at the …, priority 2001, dated 2012)
